Data as given in ChEMBL document CHEMBL3351596, “Design, synthesis and anti-leishmanial activity of novel symmetrical bispyridinium cyclophanes” (Eur J Med Chem, 2015).
Calls of active or inactive are those of the source. No cut-off for these calls is given here.

Key:
[1] = Selectivity index, ratio of EC50 for human THP1 cells to EC50 for Leishmania donovani MHOM/IND/80/Dd8 amastigotes infected in human THP1 cells; format: toxicity, cell-based, THP-1; conditions: read-out: Ratio EC50
[2] = Selectivity index, ratio of EC50 for human THP1 cells to EC50 for Leishmania major MHOM/JL/80/ Friedlin amastigotes infected in human THP1 cells; format: toxicity, cell-based, THP-1; conditions: read-out: Ratio EC50
[3] = system: Leishmania major; test: Anti-leishmanial activity against Leishmania major MHOM/JL/80/ Friedlin amastigotes infected in human THP1 cells incubated for 72 hrs at 37 degC by DAPI staining based assay; format: functional, organism-based; conditions: THP-1, 72 h
[4] = system: Leishmania donovani; test: Anti-leishmanial activity against Leishmania donovani MHOM/IND/80/Dd8 amastigotes infected in human THP1 cells incubated for 72 hrs at 37 degC by DAPI staining based assay; format: functional, organism-based; conditions: MHOM/IND/80/Dd8, THP-1, 72 h
[5] = system: Leishmania donovani; test: Anti-leishmanial activity against Leishmania donovani MHOM/IND/80/Dd8 promastigotes incubated for 72 hrs at 28 degC; format: functional, organism-based; conditions: MHOM/IND/80/Dd8, 72 h
[6] = system: Leishmania major; test: Anti-leishmanial activity against Leishmania major MHOM/JL/80/ Friedlin promastigotes incubated for 72 hrs at 28 degC; format: functional, organism-based
[7] = system: THP-1; test: Cytotoxicity against human THP1 cells after 48 hrs by MTT assay; format: cell-based; conditions: THP-1, 48 h
[8] = system: Leishmania donovani; test: Anti-leishmanial activity against Leishmania donovani MHOM/IND/80/Dd8 promastigotes expressing pXG empty vector incubated for 72 hrs at 28 degC; format: functional, organism-based; conditions: MHOM/IND/80/Dd8, 72 h
[9] = system: Leishmania donovani; test: Anti-leishmanial activity against Leishmania donovani MHOM/IND/80/Dd8 amastigotes expressing pXG empty vector infected in human THP1 cells incubated for 72 hrs at 37 degC; format: functional, organism-based; conditions: MHOM/IND/80/Dd8, THP-1, 72 h
[10] = system: Leishmania major; test: Reduction in ATP level in Leishmania major MHOM/JL/80/ Friedlin promastigotes at 0.2 uM after 1 hr by cell-titer-Glo luminescence assay; format: functional
[11] = system: Leishmania donovani; test: Anti-leishmanial activity against Leishmania donovani MHOM/IND/80/Dd8 promastigotes expressing pXG-EK incubated for 72 hrs at 28 degC; format: functional, organism-based; conditions: MHOM/IND/80/Dd8, 72 h
[12] = system: Leishmania major; test: Reduction in ATP level in Leishmania major MHOM/JL/80/ Friedlin promastigotes at 30 uM after 3 hrs by cell-titer-Glo luminescence assay; format: functional
[13] = system: Leishmania donovani; test: Anti-leishmanial activity against Leishmania donovani MHOM/IND/80/Dd8 amastigotes expressing pXG-EK infected in human THP1 cells incubated for 72 hrs at 37 degC; format: functional, organism-based; conditions: MHOM/IND/80/Dd8, THP-1, 72 h
[14] = system: Leishmania major; test: Reduction in ATP level in Leishmania major MHOM/JL/80/ Friedlin promastigotes at 0.2 uM measured up to 3 hrs by cell-titer-Glo luminescence assay; format: functional, organism-based
[15] = system: Leishmania donovani; test: Anti-leishmanial activity against Leishmania donovani MHOM/IND/80/Dd8 promastigotes incubated for 72 hrs at 28 degC in presence of 10 mM choline; format: functional, organism-based; conditions: MHOM/IND/80/Dd8, 72 h
[16] = system: Leishmania donovani; test: Anti-leishmanial activity against Leishmania donovani MHOM/IND/80/Dd8 promastigotes expressing pXG-CEK incubated for 72 hrs at 28 degC; format: functional, organism-based; conditions: MHOM/IND/80/Dd8, 72 h
[17] = system: Leishmania donovani; test: Anti-leishmanial activity against Leishmania donovani MHOM/IND/80/Dd8 amastigotes expressing pXG-CEK infected in human THP1 cells incubated for 72 hrs at 37 degC; format: functional, organism-based; conditions: MHOM/IND/80/Dd8, THP-1, 72 h
[18] = system: Leishmania donovani; test: Induction of plasma membrane depolarization in Leishmania donovani MHOM/IND/80/Dd8 promastigotes at 30 uM after 3 hrs by […] dye based fluorescence assay; format: functional, organism-based
[19] = Selectivity index, ratio of EC50 for Leishmania donovani MHOM/IND/80/Dd8 promastigotes to EC50 for Leishmania major MHOM/JL/80/ Friedlin promastigotes; format: functional
[20] = system: Leishmania donovani; test: Reduction in ATP level in Leishmania donovani MHOM/IND/80/Dd8 promastigotes at 30 uM after 3 hrs by cell-titer-Glo luminescence assay; format: functional, organism-based
[21] = system: Leishmania donovani; test: Anti-leishmanial activity against Leishmania donovani MHOM/IND/80/Dd8 promastigotes incubated for 72 hrs at 28 degC in presence of 10 mM ethanolamine; format: functional, organism-based; conditions: MHOM/IND/80/Dd8, 72 h
[22] = system: Leishmania major; test: Effect on mitochondrial membrane potential in Leishmania major MHOM/JL/80/ Friedlin promastigotes at 0.2 uM after 1 hr by […] dye based fluorescence assay; format: functional, organism-based
[23] = system: Leishmania donovani; test: Effect on mitochondrial membrane potential in Leishmania donovani MHOM/IND/80/Dd8 promastigotes at 30 uM after 3 hrs by […] dye based fluorescence assay; format: functional, organism-based
[24] = system: Leishmania major; test: Induction of plasma membrane depolarization in Leishmania major MHOM/JL/80/ Friedlin promastigotes at 0.2 uM after 1 hr by […] dye based fluorescence assay; format: functional, organism-based

SMILES | selectivity ratio [1] | selectivity ratio [2] | EC50 [3] [µM] | EC50 [4] [µM] | EC50 [5] [µM] | EC50 [6] [µM] | EC50 [7] [µM] | also measured
c1cc2ccc1CNc1cc[n+](cc1)CCCCC[n+]1ccc(cc1)NC2 | 4.3 | 170 | 0.97 | 38.3 | 26.4 | 0.17 | 165 | –
c1c[n+]2ccc1NCCOCCNc1cc[n+](cc1)CCCCC2 | 4.9 | 62.7 | 2.59 | 33.2 | 31.5 | 0.26 | 162 | –
CCCCCCCCCCCCCCCCOP(=O)([O-])OCC[N+](C)(C)C [MILTEFOSINE] | 30.5 | 2.5 | 10.6 | 0.88 | 6.6 | 16.6 | 26.9 | –
c1cc2cc(c1)CNc1cc[n+](cc1)CCOCC[n+]1ccc(cc1)NC2 | – | 22.5 | 8.67 | 8.92 | 33.8 | 5.97 | 195 | –
c1c[n+]2ccc1NCCCCCNc1cc[n+](cc1)CCCCC2 | 20.2 | 122 | 1.26 | 7.62 | 10.6 | 0.07 | 154 | EC50 [8]: 13.5 µM; EC50 [9]: 8.84 µM; inhibition at 0.2 µM [10]: > 50%; EC50 [11]: 12 µM; inhibition at 30 µM [12]: 95%; EC50 [13]: 10.5 µM; inhibition [14]: Active; EC50 [15]: 11.5 µM; EC50 [16]: 11.5 µM; EC50 [17]: 12.7 µM; Activity [18]: inactive; Ratio EC50 [19]: 100; inhibition [20]: inactive; EC50 [21]: 12 µM; Activity [22]: inactive; Activity [23]: inactive; Activity [24]: Active
C[C@@H]1[C@H](O)[C@@H](C)/C=C/C=C/C=C/C=C/C=C/C=C/C=C/[C@H](O[C@@H]2O[C@H](C)[C@@H](O)[C@H](N)[C@@H]2O)C[C@@H]2O[C@](O)(C[C@@H](O)C[C@@H](O)[C@H](O)CC[C@@H](O)C[C@@H](O)CC(=O)O[C@H]1C)C[C@H](O)[C@H]2C(=O)O [AMPHOTERICIN B] | 51.1 | 59.7 | 0.24 | 0.28 | 0.21 | 0.32 | 14.3 | –
c1cc2cc(c1)CNc1cc[n+](cc1)CCCCC[n+]1ccc(cc1)NC2 | 14.2 | 32.3 | 5.94 | 13.5 | 52 | 16.8 | 192 | –
c1cc2ccc1CNc1cc[n+](cc1)CCOCC[n+]1ccc(cc1)NC2 | 3.5 | 12.9 | 17.2 | 63.7 | 76.9 | 26.5 | 222 | –
c1cc2cc(c1)C[n+]1ccc(cc1)NCCOCCNc1cc[n+](cc1)C2 | 9.2 | 121 | 1.61 | 21.2 | 76.3 | 2.87 | 194 | –
c1c[n+]2ccc1NCCOCCNc1cc[n+](cc1)CCOCC2 | 6.2 | 57.2 | 2.24 | 20.7 | 23.4 | 0.19 | 128 | –
c1c[n+]2ccc1NCCCCCNc1cc[n+](cc1)CCOCC2 | 16.6 | 98.5 | 2.18 | 13 | 31.4 | 0.26 | 215 | –
